These are literature values, as cited in US20210205199A1, “Dermatological Cosmetic Composition Comprising an SDKP Peptide or an Analog Thereof” (RPM Dermatologie, priority 2016, published 2021).

The conditions of this data set: result in words; background.

Regarding “acetyl-serine-aspartic acid-lysine-proline-OH [Ac-SDKP-OH]”, the “Sensitivity to enzymatic hydrolysis” value was “very sensitive to enzymatic hydrolysis” and the Stability to hydrolysis entry is “hydrolyzes very easily”.
